We go through five molecules from BindingDB's records for doi:10.1021/jm500763m (Beijing Institute of Pharmacology & Toxicology, 2014).

One may read the EC50 as the concentration needed to bring the measured effect to its halfway point. A high value points to lower potency in that assay.

This experiment in a line: Inhibition of HIV1 gp41-induced cell-cell fusion between viral envelope expressing human HL2/3 cells to CD4/CCR5 receptor expressing TZM-bl cells after 6 to 8 hrs by luciferase assay.

Molecules are shown by their SMILES. Square brackets hold non-standard residues; d marks the D form. Peptide text beside a SMILES is read from it. * marks the point of attachment. X3 = C=C(C)[C@@H]1CC[C@]2(C(=O)O)CC[C@]3(C)[C@H](CC[C@@H]4[C@@]5(C)CC[C@H](OC(=O)CCc6cn(CC(=O)*)nn6)C(C)(C)[C@@H]5CC[C@]43C)[C@@H]12; X2 = C=CCOC(=O)[C@]12CCC(C)(C)C[C@H]1C1=CC[C@@H]3[C@@]4(C)CC[C@H](OC(=O)CCc5cn(CC(=O)*)nn5)C(C)(C)[C@@H]4CC[C@@]3(C)[C@]1(C)CC2; X4 = C=C(C)[C@@H]1CC[C@]2(C(=O)OCc3cn(CC(=O)*)nn3)CC[C@]3(C)[C@H](CC[C@@H]4[C@@]5(C)CC[C@H](O)C(C)(C)[C@@H]5CC[C@]43C)[C@@H]12; βAla = NCCC(=O)O

Regarding `C=C(C)[C@@H]1CC[C@]2(C(=O)O)CC[C@]3(C)[C@H](CC[C@@H]4[C@@]5(C)CC[C@H](O)C(C)(C)[C@@H]5CC[C@]43C)[C@@H]12`, the half-maximal effective concentration (EC50) was above 100000 nM.
`CC[C@H](C)[C@H](NC(=O)[C@H](CC(C)C)NC(=O)[C@H](CO)NC(=O)[C@H](Cc1cnc[nH]1)NC(=O)[C@@H](NC(=O)[C@H](CC(C)C)NC(=O)[C@H](CO)NC(=O)[C@@H](NC(=O)[C@H](Cc1ccc(O)cc1)NC(=O)[C@H](CC(N)=O)NC(=O)[C@H](CC(N)=O)NC(C)=O)[C@@H](C)O)[C@@H](C)CC)C(=O)N[C@@H](CCC(=O)O)C(=O)N[C@@H](CCC(=O)O)C(=O)N[C@@H](CO)C(=O)N[C@@H](CCC(N)=O)C(=O)N[C@@H](CC(N)=O)C(=O)N[C@@H](CCC(N)=O)C(=O)N[C@@H](CCC(N)=O)C(=O)N[C@@H](CCC(=O)O)C(=O)N[C@@H](CCCCN)C(=O)N[C@@H](CC(N)=O)C(=O)N[C@@H](CCC(=O)O)C(=O)N[C@@H](CCC(N)=O)C(=O)N[C@@H](CCC(=O)O)C(=O)N[C@@H](CC(C)C)C(=O)N[C@@H](CC(C)C)C(N)=O` (Ac-NNYTSLIHSLIEESQNQQEKNEQELL-NH2): a half-maximal response (EC50) required 3240 nM. This lies in the single-digit micromolar range.
Molecule `C=CCOC(=O)[C@]12CCC(C)(C)C[C@H]1C1=CC[C@@H]3[C@@]4(C)CC[C@H](OC(=O)CCc5cn(CC(=O)NCCCC[C@H](NC(=O)CCNC(=O)[C@H](CC(C)C)NC(=O)[C@H](CC(C)C)NC(=O)[C@H](CCC(=O)O)NC(=O)[C@H](CCC(N)=O)NC(=O)[C@H](CCC(=O)O)NC(=O)[C@H](CC(N)=O)NC(=O)[C@H](CCCCN)NC(=O)[C@H](CCC(=O)O)NC(=O)[C@H](CCC(N)=O)NC(=O)[C@H](CCC(N)=O)NC(=O)[C@H](CC(N)=O)NC(=O)[C@H](CCC(N)=O)NC(=O)[C@H](CO)NC(=O)[C@H](CCC(=O)O)NC(=O)[C@H](CCC(=O)O)NC(=O)[C@@H](NC(=O)[C@H](CC(C)C)NC(=O)[C@H](CO)NC(=O)[C@H](Cc6cnc[nH]6)NC(=O)[C@@H](NC(=O)[C@H](CC(C)C)NC(=O)[C@H](CO)NC(=O)[C@@H](NC(=O)[C@H](Cc6ccc(O)cc6)NC(=O)[C@H](CC(N)=O)NC(=O)[C@H](CC(N)=O)NC(C)=O)[C@@H](C)O)[C@@H](C)CC)[C@@H](C)CC)C(N)=O)nn5)C(C)(C)[C@@H]4CC[C@@]3(C)[C@]1(C)CC2` (Ac-NNYTSLIHSLIEESQNQQEKNEQELL[βAla]K(X2)-NH2) returned an EC50 of 3.3 nM.
For `C=C(C)[C@@H]1CC[C@]2(C(=O)O)CC[C@]3(C)[C@H](CC[C@@H]4[C@@]5(C)CC[C@H](OC(=O)CCc6cn(CC(=O)NCCCC[C@H](NC(=O)CCNC(=O)[C@H](CC(C)C)NC(=O)[C@H](CC(C)C)NC(=O)[C@H](CCC(=O)O)NC(=O)[C@H](CCC(N)=O)NC(=O)[C@H](CCC(=O)O)NC(=O)[C@H](CC(N)=O)NC(=O)[C@H](CCCCN)NC(=O)[C@H](CCC(=O)O)NC(=O)[C@H](CCC(N)=O)NC(=O)[C@H](CCC(N)=O)NC(=O)[C@H](CC(N)=O)NC(=O)[C@H](CCC(N)=O)NC(=O)[C@H](CO)NC(=O)[C@H](CCC(=O)O)NC(=O)[C@H](CCC(=O)O)NC(=O)[C@@H](NC(=O)[C@H](CC(C)C)NC(=O)[C@H](CO)NC(=O)[C@H](Cc7cnc[nH]7)NC(=O)[C@@H](NC(=O)[C@H](CC(C)C)NC(=O)[C@H](CO)NC(=O)[C@@H](NC(=O)[C@H](Cc7ccc(O)cc7)NC(=O)[C@H](CC(N)=O)NC(=O)[C@H](CC(N)=O)NC(C)=O)[C@@H](C)O)[C@@H](C)CC)[C@@H](C)CC)C(N)=O)nn6)C(C)(C)[C@@H]5CC[C@]43C)[C@@H]12` (Ac-NNYTSLIHSLIEESQNQQEKNEQELL[βAla]K(X3)-NH2) the value was 44 nM.
For `C=C(C)[C@@H]1CC[C@]2(C(=O)OCc3cn(CC(=O)NCCCC[C@H](NC(=O)CCNC(=O)[C@H](CC(C)C)NC(=O)[C@H](CC(C)C)NC(=O)[C@H](CCC(=O)O)NC(=O)[C@H](CCC(N)=O)NC(=O)[C@H](CCC(=O)O)NC(=O)[C@H](CC(N)=O)NC(=O)[C@H](CCCCN)NC(=O)[C@H](CCC(=O)O)NC(=O)[C@H](CCC(N)=O)NC(=O)[C@H](CCC(N)=O)NC(=O)[C@H](CC(N)=O)NC(=O)[C@H](CCC(N)=O)NC(=O)[C@H](CO)NC(=O)[C@H](CCC(=O)O)NC(=O)[C@H](CCC(=O)O)NC(=O)[C@@H](NC(=O)[C@H](CC(C)C)NC(=O)[C@H](CO)NC(=O)[C@H](Cc4cnc[nH]4)NC(=O)[C@@H](NC(=O)[C@H](CC(C)C)NC(=O)[C@H](CO)NC(=O)[C@@H](NC(=O)[C@H](Cc4ccc(O)cc4)NC(=O)[C@H](CC(N)=O)NC(=O)[C@H](CC(N)=O)NC(C)=O)[C@@H](C)O)[C@@H](C)CC)[C@@H](C)CC)C(N)=O)nn3)CC[C@]3(C)[C@H](CC[C@@H]4[C@@]5(C)CC[C@H](O)C(C)(C)[C@@H]5CC[C@]43C)[C@@H]12` (Ac-NNYTSLIHSLIEESQNQQEKNEQELL[βAla]K(X4)-NH2) the value was 20 nM.
